The nature of series [1]: Atomic force microscopy (AFM) topography of Langmuir-Blodgett-transferred meibomian lipid layers. In kind it is physicochemical, human. The protocol:
The topography of the surface of the lipid layers was examined with the aid of an atomic force microscope (atomic force microscopy, AFM). To this end, the lipid layer was transferred to a solid surface using the Langmuir-Blodgett technique; thereafter, the AFM measurements were carried out at pressures of 5 mN/m, 20 mN/m and 23.5 mN/m and 20° C. At a relatively low pressure of 5 mN/m, it was possible to observe small fibrous structures of up to approx. 5 nm in height distributed over the entire area. Layers of hydrophobic lipids such as cholesteryl esters and triglycerides might be involved here. At higher pressures of 20 mN/m, the number of fibrous structures increased.
In the presence of 100 mM ectoine, droplet-type structures of up to approx. 300 nm in height were observed. At higher ectoine concentrations, the diameter of the droplet-type structures increased.

The test system of series [2] is patients suffering from a mild to moderate form of keratoconjunctivitis sicca. Kind of series: Clinical study, OSDI (ocular surface disease index) quality of life. In kind it is in vivo, human. The conditions noted are these: within the 28-day observation period. On the procedure:
In one study, 64 patients suffering from a mild to moderate form of keratoconjunctivitis sicca were examined. […] The majority (72%) of the patients were female. For at least one eye in each case, the tear break-up time (TBUT), i.e., the time until dry spots reappear on the cornea after blinking, was less than 10 sec. The TBUT was used as the main parameter for the treatment assessment. Over a period of 28 days, 34 patients were treated with an ectoine-containing composition and the other 30 patients with hyaluronic acid as reference. 59 of the patients finished the study as planned; 5 patients left prematurely. The quality of life of the patients was determined on the basis of the OSDI (ocular surface disease index). The OSDI assessment consists of 12 questions answered by the patients on a scale of 0 to 4 (0=never; 4=always). The higher the OSDI value, the stronger the impairment of the daily life of the disease. Within the observation period, it was possible to observe a decrease of 17.7 points in the case of the ectoine-treated patients and of 17.2 points in the case of the hyaluronic acid-treated patients.

For series [3] the test system is unchanged. In kind it is in vivo, human. The conditions noted are these: for tolerability: human, in vivo. The protocol: In one study, 64 patients suffering from a mild to moderate form of keratoconjunctivitis sicca were examined. […] The majority (72%) of the patients were female. For at least one eye in each case, the tear break-up time (TBUT), i.e., the time until dry spots reappear on the cornea after blinking, was less than 10 sec. The TBUT was used as the main parameter for the treatment assessment. Over a period of 28 days, 34 patients were treated with an ectoine-containing composition and the other 30 patients with hyaluronic acid as reference. 59 of the patients finished the study as planned; 5 patients left prematurely. […] Especially the sensation of foreign bodies and the sensation of tired eyes were rated as improved following the treatment. 78.8% of the ectoine-treated patients and 71.4% of the hyaluronic acid-treated patients would continue use.

Series [4] shares this test system. Kind of series: Clinical study, lacrimation according to Schirmer's test II. In kind it is in vivo, human. The protocol:
In one study, 64 patients suffering from a mild to moderate form of keratoconjunctivitis sicca were examined. […] The majority (72%) of the patients were female. For at least one eye in each case, the tear break-up time (TBUT), i.e., the time until dry spots reappear on the cornea after blinking, was less than 10 sec. The TBUT was used as the main parameter for the treatment assessment. Over a period of 28 days, 34 patients were treated with an ectoine-containing composition and the other 30 patients with hyaluronic acid as reference. 59 of the patients finished the study as planned; 5 patients left prematurely. Lacrimation was examined according to the Schirmer's test II. This was lower for the ectoine patients than for the hyaluronic acid patients both at the start (8.8 mm/5 min compared to 16.0 mm/5 min) and at the end (10.6 mm/5 min compared to 16.8 mm/5 min) of the treatment, it being possible to observe a more distinct improvement for the ectoine-treated patients than for the hyaluronic acid-treated patients (1.8 mm/5 min compared to 0.8 mm/5 min).

The test system is the same in series [5]. The experiment in a line: Clinical study, tear break-up time (TBUT). In kind it is in vivo, human. On the procedure: In one study, 64 patients suffering from a mild to moderate form of keratoconjunctivitis sicca were examined. […] The majority (72%) of the patients were female. For at least one eye in each case, the tear break-up time (TBUT), i.e., the time until dry spots reappear on the cornea after blinking, was less than 10 sec. The TBUT was used as the main parameter for the treatment assessment. Over a period of 28 days, 34 patients were treated with an ectoine-containing composition and the other 30 patients with hyaluronic acid as reference. 59 of the patients finished the study as planned; 5 patients left prematurely. On average, the TBUT improved within the 28-day observation period by 2.6 sec (p=0.0011) for ectoine-treated patients and by 1.1 sec (p=0.1686) for the hyaluronic acid-treated patients.

A short description of series [6]: Compression of meibomian lipid monolayers on PBS subphase with different ectoine concentrations (surface pressure-area isotherms). In kind it is physicochemical, human. On the procedure:
Meibomian lipids were obtained from the meibomian glands of four healthy volunteers. The lipids were dissolved in chloroform/methanol (1:1, v/v) and applied to an aqueous subphase (PBS, phosphate-buffered saline solution, pH 7.4, T=20° C.). After an equilibration time of 10-15 min, the monolayers were compressed at 2.9 cm^2/min. The subphase was provided with different ectoine concentrations. The result of the compression of the lipid film on a PBS subphase without ectoine is depicted in FIG. 2A. No phase transitions are observed up to a surface pressure of 20 mN/m. […] Ectoine therefore enlarges the spaces between the molecules.

For the compound `CC1=N[C@H](C(=O)O)CCN1` [ectoine, (S)-2-methyl-1,4,5,6-tetrahydropyrimidine-4-carboxylic acid], the “formation of droplet-type structures” value in series [1] (50 mM ectoine, AFM) is “comparatively scattered and distinctly smaller”. For the same compound, the “thickness of the lipid layer at the sites of the droplet-type clusters” value in series [1] (100 mM ectoine in the lacrimal fluid (model of FIG. 1B), approx. 20 nm in the absence of ectoine) is “approx. 200 nm”. In addition, the “height of droplet-type structures” value in series [1] (100 mM ectoine, AFM, 20° C.) is recorded as at most 300 nm. The “diameter of the droplet-type structures” value in series [1] (ectoine concentrations higher than 100 mM, AFM) is recorded as “increased”. Also, in series [2], the “decrease of OSDI” value was 17.7 points. Further, the “estimation of the effectiveness of the treatment according to patients' estimates” value in series [3] (after 28-day treatment) is given as 0.9 points. In addition, the tolerability entry in series [3] is given as “generally well tolerated”. Also, the “lacrimation, Schirmer's test II, at the end of the treatment” value in series [4] (end of the 28-day treatment) is reported as 10.6 mm/5 min. The “improvement of lacrimation, Schirmer's test II” value in series [4] (end vs start of the 28-day treatment) came out at 1.8 mm/5 min. In series [4] (start of the treatment (baseline)), the “lacrimation, Schirmer's test II, at the start of the treatment” value amounted to 8.8 mm/5 min. The “improvement of TBUT in patients with severe keratoconjunctivitis sicca and TBUT<5 sec” value in series [5] (28 days, ectoine compared with hyaluronic acid) is “stronger improvement”. In addition, the “improvement of TBUT on average” value in series [5] (within the 28-day observation period) amounted to 2.6 s. For the same compound, the “hysteresis of compression-expansion curves” value in series [6] (ectoine in PBS subphase vs without ectoine) is listed as “no significant differences”. Further, the “shift of the compression isotherm (area per molecule)” value in series [6] (ectoine in PBS subphase, pH 7.4, 20° C., vs subphase without ectoine, effect is concentration-dependent) was “isotherm shifts in the direction of a larger area per molecule”.

On to hyaluronic acid [reference compound], for which the tolerability result in series [3] is listed as “generally well tolerated”.

The values above are taken from patent publication US20250195515A1, “COMPOSITION FOR TREATING THE EYE” (BITOP AG, priority 2014, published 2025).
